Article PMC11243693, “Synthesis and Biological Evaluation of New Compounds with Nitroimidazole Moiety” (Molecules, 2024)
Values after ≈ are worked out from the molar mass of the structure shown.

What was measured:
[1] = test system: Candida parapsilosis ATCC 22019; assay: Broth microdilution, C. parapsilosis ATCC 22019; type: cell-based; details: Cp 22019
Description: (§1) The antibacterial activity of the obtained thiosemicarbazides and hydrazide–hydrazones was determined by evaluating their ability to inhibit microbial growth in vitro using the broth microdilution method, according to the guidelines of the European Committee on Antimicrobial Susceptibility Testing (EUCAST). The method involved the preparation of microbial suspensions with a standardized density of 0.5 on the McFarland scale (equivalent to 1.5 × 10^8 colony-forming units/mL for bacteria and […] for fungi). A solution of the test substances was then prepared (initial concentration 1000 µg/mL, diluted in sterile Mueller-Hinton broth for bacteria or Mueller-Hinton with 2% glucose for fungi). The test was carried out in 96-well polystyrene flat-bottom plates (Medlab, Poland) with 100 µL of appropriate sterile microbiological medium in each well. The first wells were filled with 200 µL of the test substance, diluted to the initial concentration, and then double-decreasing dilutions were made under aseptic conditions using an automatic pipette. The final step was the addition of a 10-fold diluted microbial suspension of 2 µL. At the same time, the following controls were included: (a) medium control (100 µL of sterile medium without microorganisms added), (b) microbial viability control, (c) test substance control (dilutions without added micro-organisms), (d) positive control of the drug used in the clinic. The plates thus prepared were incubated for 18 ± 2 h at 35 ± 2 °C under conditions optimal for the growth of the test microorganisms. After incubation, the spectrophotometric absorbance at 570 nm in each well of the plate was read. The aim of this part of the study was to determine two parameters: the minimum inhibitory concentration (MIC) and the minimum bactericidal or fungicidal concentration (MBC/MFC) of the test compound. […] The MBC value was determined by adding 5 µL of the contents of each well of the plate to solid sterile MHA or MHA + 2%glc medium for bacteria and fungi, respectively. The area on the plate where 99.9% inhibition of microbial growth was observed indicated the lethal concentration. In addition, the quotient MBC(MFC)/MIC could be determined to assess the nature of the activity of the test substance. If MBC(MFC)/MIC was <4, the test substance was bactericidal/fungicidal, whereas if MBC(MFC)/MIC was ≥4, it was bacteriostatic/fungistatic. Amoxicillin (Glentham Life Sciences, USA) and nystatin (Glentham Life Sciences, USA) were used as the controls for this assay.
(§2) The test was performed either on bacteria, comprising: Gram-positive (Staphylococcus aureus ATCC 25923, Staphylococcus aureus ATCC 6538, Staphylococcus aureus ATCC 43300 methicillin-resistant MRSA, Staphylococcus epidermidis ATCC 12228, Micrococcus luteus ATCC 10240, Bacillus subtilis ATCC 6633, Bacillus cereus ATCC 10876) and Gram-negative (Escherichia coli ATCC 25922, Pseudomonas aeruginosa ATCC 27853, Proteus mirabilis ATCC 12453, Klebsiella pneumoniae ATCC 13883) or yeast (Candida parapsilosis ATCC 22019, Candida glabrata ATCC 90030, Candida krusei ATCC 14243, Candida glabrata ATCC 15126, Candida tropicalis ATCC 1369, Candida auris CDC B11903, Candida lusitaniae ATCC 3449) reference strains from the American Type Culture Collection (ATCC) or the Centers for Disease Control and Prevention (CDC).

[2] = test system: Candida spp.; assay: Broth microdilution, Candida spp.; type: cell-based; details: for MBC (range, C. parapsilosis ATCC 22019 and C. tropicalis ATCC 1369) / MIC (range, C. parapsilosis ATCC 22019 and C. tropicalis ATCC 1369): range over both strains and the listed compounds
Description: as §1, §2

[3] = test system: Staphylococcus aureus ATCC 25923; assay: Broth microdilution, S. aureus ATCC 25923; type: cell-based; details: Sa 25923
Description: as §1, §2

[4] = test system: Staphylococcus epidermidis ATCC 12228; assay: Broth microdilution, S. epidermidis ATCC 12228; type: cell-based; details: Se 12228; for MBC/MIC Ratio: <4 bactericidal, ≥4 bacteriostatic
Description: as §1, §2

[5] = test system: Bacillus cereus ATCC 10876; assay: Broth microdilution, B. cereus ATCC 10876; type: cell-based; details: Bc 10876; for MBC/MIC Ratio: <4 bactericidal, ≥4 bacteriostatic
Description: as §1, §2

[6] = test system: Candida glabrata ATCC 15126; assay: Broth microdilution, C. glabrata ATCC 15126; type: cell-based; details: Cg 15126
Description: as §1, §2

[7] = test system: Staphylococcus aureus ATCC 6538; assay: Broth microdilution, S. aureus ATCC 6538; type: cell-based; details: Sa 6538
Description: as §1, §2

[8] = test system: Candida krusei ATCC 14243; assay: Broth microdilution, C. krusei ATCC 14243; type: cell-based; details: Ck 14243
Description: as §1, §2

[9] = test system: Micrococcus luteus ATCC 10240; assay: Broth microdilution, M. luteus ATCC 10240; type: cell-based; details: Ml 10240; for MBC/MIC Ratio: <4 bactericidal, ≥4 bacteriostatic
Description: as §1, §2

[10] = test system: Candida tropicalis ATCC 1369; assay: Broth microdilution, C. tropicalis ATCC 1369; type: cell-based; details: Ct 1369; for MFC/MIC Ratio: <4 fungicidal, ≥4 fungistatic
Description: as §1, §2

[11] = test system: Candida lusitaniae ATCC 3449; assay: Broth microdilution, C. lusitaniae ATCC 3449; type: cell-based; details: Cl 3449
Description: as §1, §2

[12] = test system: Bacillus subtilis ATCC 6633; assay: Broth microdilution, B. subtilis ATCC 6633; type: cell-based; details: Bs 6633; for MBC/MIC Ratio: <4 bactericidal, ≥4 bacteriostatic
Description: as §1, §2

[13] = test system: Candida glabrata ATCC 90030; assay: Broth microdilution, C. glabrata ATCC 90030; type: cell-based; details: Cg 90030
Description: as §1, §2

[14] = test system: Candida auris CDC B11903; assay: Broth microdilution, C. auris CDC B11903; type: cell-based; details: Ca B11903
Description: as §1, §2

[15] = test system: Staphylococcus aureus ATCC 43300 methicillin-resistant MRSA; assay: Broth microdilution, S. aureus ATCC 43300 MRSA; type: cell-based; details: Sa 43300 MRSA
Description: as §1, §2

MIC [1] [µg/mL] | MIC (range, C. parapsilosis ATCC 22019 and C. tropicalis ATCC 1369) [2] [µg/mL] | MIC [3] [µg/mL] | MIC [4] [µg/mL] | MIC [5] [µg/mL] | MIC [6] [µg/mL] | MIC [7] [µg/mL] | MIC [8] [µg/mL] | MIC [9] [µg/mL] | MIC [10] [µg/mL] | MIC [11] [µg/mL] | SMILES | MFC [1] [µg/mL] | MBC (range, C. parapsilosis ATCC 22019 and C. tropicalis ATCC 1369) [2] [µg/mL] | MBC [3] [µg/mL] | MBC [4] [µg/mL] | MBC [5] [µg/mL] | MBC [7] [µg/mL] | MBC [9] [µg/mL] | MFC [10] [µg/mL] | MFC/MIC Ratio [10] | also measured
250 (≈ 705 µM) | 62.5 to 1000 | 250 (≈ 705 µM) | 250 (≈ 705 µM) | 1000 (≈ 2820 µM) | >1000 | 500 (≈ 1410 µM) | >1000 | 250 (≈ 705 µM) | 250 (≈ 705 µM) | >1000 | Cn1cc([N+](=O)[O-])nc1C(=O)NNC(=S)Nc1ccccc1Cl [Compound 3] | >1000 | 500 to 1000 | >1000 | 500 (≈ 1410 µM) | >1000 | >1000 | 250 (≈ 705 µM) | 500 (≈ 1410 µM) | 2 | MBC/MIC Ratio [4]: 2; MBC/MIC Ratio [9]: 1; MBC [12]: 125 µg/mL (≈ 352 µM); MIC [12]: 125 µg/mL (≈ 352 µM); MBC/MIC Ratio [12]: 1; MIC [13]: >1000 µg/mL; MIC [14]: >1000 µg/mL; MBC [15]: >1000 µg/mL; MIC [15]: 1000 µg/mL (≈ 2820 µM)
500 (≈ 1430 µM) | 62.5 to 1000 | 500 (≈ 1430 µM) | 500 (≈ 1430 µM) | 1000 (≈ 2850 µM) | >1000 | 1000 (≈ 2850 µM) | >1000 | 500 (≈ 1430 µM) | 500 (≈ 1430 µM) | >1000 | COc1ccccc1NC(=S)NNC(=O)c1nc([N+](=O)[O-])cn1C [Compound 9] | 1000 (≈ 2850 µM) | 500 to 1000 | >1000 | >1000 | >1000 | >1000 | >1000 | 1000 (≈ 2850 µM) | 2 | MFC/MIC Ratio ([1]; <4 fungicidal, ≥4 fungistatic): 2; MBC [12]: 500 µg/mL (≈ 1430 µM); MIC [12]: 500 µg/mL (≈ 1430 µM); MBC/MIC Ratio [12]: 1; MIC [13]: >1000 µg/mL; MIC [14]: >1000 µg/mL; MBC [15]: >1000 µg/mL; MIC [15]: 1000 µg/mL (≈ 2850 µM)
250 (≈ 714 µM) | 62.5 to 1000 | 250 (≈ 714 µM) | 500 (≈ 1430 µM) | 500 (≈ 1430 µM) | >1000 | 1000 (≈ 2850 µM) | >1000 | 250 (≈ 714 µM) | 250 (≈ 714 µM) | >1000 | COc1cccc(NC(=S)NNC(=O)c2nc([N+](=O)[O-])cn2C)c1 [Compound 10] | >1000 | 500 to 1000 | >1000 | 500 (≈ 1430 µM) | 1000 (≈ 2850 µM) | >1000 | 250 (≈ 714 µM) | 1000 (≈ 2850 µM) | 4 | antifungal activity towards tested Candida strains ([2]; in words): fungistatic activity; MBC/MIC Ratio [4]: 1; MBC/MIC Ratio [5]: 2; MBC/MIC Ratio [9]: 1; MBC [12]: 500 µg/mL (≈ 1430 µM); MIC [12]: 125 µg/mL (≈ 357 µM); MBC/MIC Ratio [12]: 4; MIC [13]: >1000 µg/mL; MIC [14]: >1000 µg/mL; MBC [15]: >1000 µg/mL; MIC [15]: 500 µg/mL (≈ 1430 µM)

Further lines, the compound ahead of its results:

SMILES | MIC [1] [µg/mL] | MIC (range, C. parapsilosis ATCC 22019 and C. tropicalis ATCC 1369) [2] [µg/mL] | MIC [3] [µg/mL] | MIC [4] [µg/mL] | MIC [5] [µg/mL] | MIC [6] [µg/mL] | MIC [7] [µg/mL] | MIC [8] [µg/mL] | MIC [9] [µg/mL] | MIC [10] [µg/mL] | MIC [11] [µg/mL] | MFC [1] [µg/mL] | MBC (range, C. parapsilosis ATCC 22019 and C. tropicalis ATCC 1369) [2] [µg/mL] | MBC [3] [µg/mL] | MBC [4] [µg/mL] | MBC [5] [µg/mL] | MBC [7] [µg/mL] | MBC [9] [µg/mL] | MFC [10] [µg/mL] | MFC/MIC Ratio [10] | also measured
Cn1cc([N+](=O)[O-])nc1C(=O)NNC(=S)Nc1cccc(Cl)c1 [Compound 4] | 62.5 (≈ 176 µM) | 62.5 to 1000 | 62.5 (≈ 176 µM) | 125 (≈ 352 µM) | 250 (≈ 705 µM) | >1000 | 250 (≈ 705 µM) | >1000 | 125 (≈ 352 µM) | 250 (≈ 705 µM) | >1000 | >1000 | 500 to 1000 | >1000 | 125 (≈ 352 µM) | >1000 | >1000 | 500 (≈ 1410 µM) | 500 (≈ 1410 µM) | 2 | MBC/MIC Ratio [4]: 1; MBC/MIC Ratio [9]: 4; MBC [12]: 62.5 µg/mL (≈ 176 µM); MIC [12]: 62.5 µg/mL (≈ 176 µM); MBC/MIC Ratio [12]: 1; MIC [13]: >1000 µg/mL; MIC [14]: >1000 µg/mL; MBC [15]: >1000 µg/mL; MIC [15]: 500 µg/mL (≈ 1410 µM)
Cn1cc([N+](=O)[O-])nc1C(=O)NNC(=S)Nc1ccccc1C(F)(F)F [Compound 12] | 125 (≈ 322 µM) | 62.5 to 1000 | 250 (≈ 644 µM) | 500 (≈ 1290 µM) | 500 (≈ 1290 µM) | >1000 | 500 (≈ 1290 µM) | >1000 | 250 (≈ 644 µM) | 500 (≈ 1290 µM) | >1000 | >1000 | 500 to 1000 | >1000 | 500 (≈ 1290 µM) | 500 (≈ 1290 µM) | >1000 | 500 (≈ 1290 µM) | 1000 (≈ 2580 µM) | 2 | MBC/MIC Ratio [4]: 1; MBC/MIC Ratio [5]: 1; MBC/MIC Ratio [9]: 2; MBC [12]: 250 µg/mL (≈ 644 µM); MIC [12]: 250 µg/mL (≈ 644 µM); MBC/MIC Ratio [12]: 1; MIC [13]: >1000 µg/mL; MIC [14]: >1000 µg/mL; MBC [15]: >1000 µg/mL; MIC [15]: 1000 µg/mL (≈ 2580 µM)
Cn1cc([N+](=O)[O-])nc1C(=O)NN=Cc1cccc(Cl)c1F [Compound 28, N’-[(3-chloro-2-fluorophenyl)methylidene]-1-methyl-4-nitro-1H-imidazole-2-carbohydrazide] |  |  |  |  |  |  |  |  |  |  |  |  |  |  |  |  |  |  |  |  | melting point: 252 to 255 °C
COc1cc(Cl)ccc1C=NNC(=O)c1nc([N+](=O)[O-])cn1C [Compound 29, N’-[(4-chloro-2-methoxyphenyl)methylidene]-1-methyl-4-nitro-1H-imidazole-2-carbohydrazide] |  |  |  |  |  |  |  |  |  |  |  |  |  |  |  |  |  |  |  |  | melting point: 234 to 237 °C
